Laboratory results: patent US4868154A, “Stimulation of tear secretion with melanocyte stimulating hormones” (Eye Research Institute of Retina Foundation, priority 1986, dated 1989)
Where no end group is shown, it is not given here.

Experiments:
lacrimal gland = details: topical administration; Gilbard and Dartt, patent pending; cited from earlier work
lacrimal gland cells = details: Dartt et al, Am. J. Physio. 247: G502, 1984; cited from earlier work
rabbits with dry eyes = assay: Tear film osmolality after topical drops in dry eye rabbits; assay type: in vivo; details: dry eye rabbit, topical 10 μl drops, 10^-5 M, 10^-4 M and 10^-3 M in buffer, FIGS. 2 to 4; for tear film osmolality compared with buffer alone: tear samples at 6 and 16 minutes
Experimental: In vivo examples in accordance with the invention were conducted on rabbits with dry eyes. The dry eye disorder is created by surgically closing the duct that carries fluid from the main lacrimal gland to the tear film and surgically removing the nictitans and harderian glands. This leaves intact only the accessory glands that lie on the surface of the eye. These rabbits develop increased tear film osmolality soon after the operation, a finding that is understood to be due to decreased tear production, and that is characteristic of dry eye. It is recognized that results of opthalmologic tests using rabbits has close correlation with humans and therefore the results carry over to humans
The effect on tear film osmolality of topically applied isotonic buffer solution with and without melanocyte stimulating hormones which activate the melanotropin receptors was studied in the dry eye rabbit. All test drops were ten microliters (μl) in volume. Tear samples were taken with a micropipette system, in the manner described in the article entitled "Osmolarity of Tear Microvolumes in Keratoconjunctivitis Sicca", by Gilbard et al, Arch Ophthalmol 96:677, 1978. Osmolarity was measured by freezing-point depression.
The following protocol was used to test the effects of the topically applied melanotropins. At zero time a tear sample was taken for measurement of osmolality. At one minute the test drop was instilled. At six and at sixteen minutes, tear samples were taken for osmolality measurements. Five minutes after the sixteen minute sample, the above sequence was repeated several times to test additional drops.
The following drops were instilled in the test eye and after each such instillation, test samples were taken as stated: (1) buffer solution, (2) buffer solution containing a melanocyte stimulating hormone at a low dose, (3) buffer solution, (4) buffer solution containing a melanocyte stimulating hormone at a moderate dose, (5) buffer solution, (6) buffer solution containing a melanocyte stimulating hormone at a higher dose. The melanocyte stimulating hormone may be obtained from Peninsula Laboratories,Inc., Belmont California. The results are shown in FIGS. 1 through 4 A, B, and C, where FIGS. 1 through 4 each represent results obtained from the same rabbit.

tissue pieces in vitro = details: Jahn et al Eur. J. Biochem 126: 623, 1982; cited from earlier work

## vasoactive intestinal peptide (HSDAVFTDNYTRLRKQMAVKKYLNSILN; ends and bridges not checked; UniProt P01282 125-152, looked up) [peptide cited from prior work as stimulating lacrimal gland fluid secretion]
Lacrimal gland
  lacrimal gland fluid secretion: stimulates lacrimal gland fluid secretion
Lacrimal gland cells
  cyclic AMP levels in lacrimal gland cells: increase cyclic AMP levels

## gamma-melanocyte stimulating hormone [gamma-MSH]
Rabbits with dry eyes
  dose dependence of the decrease in tear film osmolality: dose-dependent decrease in tear film osmolality
  tear film osmolality compared with buffer alone: lowers the tear film osmolality more effectively than buffer alone

## adrenocorticotropic hormone (SYSMEHFRWGKPVGKKRRPVKVYPNGAEDESAEAFPLEF; Corticotropin; UniProt P01189 138-176, looked up) [hormone cited from literature as stimulating protein secretion in vitro]
Tissue pieces in vitro
  protein secretion: stimulate protein secretion

## beta-melanocyte stimulating hormone [beta-MSH]
Rabbits with dry eyes
  dose dependence of the decrease in tear film osmolality: dose-dependent decrease in tear film osmolality
  tear film osmolality compared with buffer alone: lowers the tear film osmolality more effectively than buffer alone
